Results as given in patent US20220380338A1, “CYCLOALKYL 3-OXOPIPERAZINE CARBOXAMIDES AND CYCLOHETEROALKYL 3-OXOPIPERAZINE CARBOXAMIDES AS NAV1.8 INHIBITORS” (Merck Sharp & Dohme LLC, priority 2021, published 2022).

Each compound was assayed against T1, human NaV1.8 (Homo sapiens, UniProt Q9Y5Y9) (assay: Nav1.8 Qube® Assay (automated 384-well patch-clamp, inhibition of sodium current)). Conditions: human NaV1.8 channels stably expressed in HEK 293 cells, room temperature.
T1 construct: expressed in transfected cells
Format: cell-based
In short: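 Whole-cell voltage clamp at room temperature in HEK293 cells stably expressing NaV1.8; from −90 mV hold, 10 s 1 Hz train of 20 ms pulses to 10 mV with 980 ms repolarization to −67 mV. Peak currents of 1st and 10th pulses give resting and inactivated-state IC50s, Hill fit.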

T1 sequence (Q9Y5Y9 whole entry): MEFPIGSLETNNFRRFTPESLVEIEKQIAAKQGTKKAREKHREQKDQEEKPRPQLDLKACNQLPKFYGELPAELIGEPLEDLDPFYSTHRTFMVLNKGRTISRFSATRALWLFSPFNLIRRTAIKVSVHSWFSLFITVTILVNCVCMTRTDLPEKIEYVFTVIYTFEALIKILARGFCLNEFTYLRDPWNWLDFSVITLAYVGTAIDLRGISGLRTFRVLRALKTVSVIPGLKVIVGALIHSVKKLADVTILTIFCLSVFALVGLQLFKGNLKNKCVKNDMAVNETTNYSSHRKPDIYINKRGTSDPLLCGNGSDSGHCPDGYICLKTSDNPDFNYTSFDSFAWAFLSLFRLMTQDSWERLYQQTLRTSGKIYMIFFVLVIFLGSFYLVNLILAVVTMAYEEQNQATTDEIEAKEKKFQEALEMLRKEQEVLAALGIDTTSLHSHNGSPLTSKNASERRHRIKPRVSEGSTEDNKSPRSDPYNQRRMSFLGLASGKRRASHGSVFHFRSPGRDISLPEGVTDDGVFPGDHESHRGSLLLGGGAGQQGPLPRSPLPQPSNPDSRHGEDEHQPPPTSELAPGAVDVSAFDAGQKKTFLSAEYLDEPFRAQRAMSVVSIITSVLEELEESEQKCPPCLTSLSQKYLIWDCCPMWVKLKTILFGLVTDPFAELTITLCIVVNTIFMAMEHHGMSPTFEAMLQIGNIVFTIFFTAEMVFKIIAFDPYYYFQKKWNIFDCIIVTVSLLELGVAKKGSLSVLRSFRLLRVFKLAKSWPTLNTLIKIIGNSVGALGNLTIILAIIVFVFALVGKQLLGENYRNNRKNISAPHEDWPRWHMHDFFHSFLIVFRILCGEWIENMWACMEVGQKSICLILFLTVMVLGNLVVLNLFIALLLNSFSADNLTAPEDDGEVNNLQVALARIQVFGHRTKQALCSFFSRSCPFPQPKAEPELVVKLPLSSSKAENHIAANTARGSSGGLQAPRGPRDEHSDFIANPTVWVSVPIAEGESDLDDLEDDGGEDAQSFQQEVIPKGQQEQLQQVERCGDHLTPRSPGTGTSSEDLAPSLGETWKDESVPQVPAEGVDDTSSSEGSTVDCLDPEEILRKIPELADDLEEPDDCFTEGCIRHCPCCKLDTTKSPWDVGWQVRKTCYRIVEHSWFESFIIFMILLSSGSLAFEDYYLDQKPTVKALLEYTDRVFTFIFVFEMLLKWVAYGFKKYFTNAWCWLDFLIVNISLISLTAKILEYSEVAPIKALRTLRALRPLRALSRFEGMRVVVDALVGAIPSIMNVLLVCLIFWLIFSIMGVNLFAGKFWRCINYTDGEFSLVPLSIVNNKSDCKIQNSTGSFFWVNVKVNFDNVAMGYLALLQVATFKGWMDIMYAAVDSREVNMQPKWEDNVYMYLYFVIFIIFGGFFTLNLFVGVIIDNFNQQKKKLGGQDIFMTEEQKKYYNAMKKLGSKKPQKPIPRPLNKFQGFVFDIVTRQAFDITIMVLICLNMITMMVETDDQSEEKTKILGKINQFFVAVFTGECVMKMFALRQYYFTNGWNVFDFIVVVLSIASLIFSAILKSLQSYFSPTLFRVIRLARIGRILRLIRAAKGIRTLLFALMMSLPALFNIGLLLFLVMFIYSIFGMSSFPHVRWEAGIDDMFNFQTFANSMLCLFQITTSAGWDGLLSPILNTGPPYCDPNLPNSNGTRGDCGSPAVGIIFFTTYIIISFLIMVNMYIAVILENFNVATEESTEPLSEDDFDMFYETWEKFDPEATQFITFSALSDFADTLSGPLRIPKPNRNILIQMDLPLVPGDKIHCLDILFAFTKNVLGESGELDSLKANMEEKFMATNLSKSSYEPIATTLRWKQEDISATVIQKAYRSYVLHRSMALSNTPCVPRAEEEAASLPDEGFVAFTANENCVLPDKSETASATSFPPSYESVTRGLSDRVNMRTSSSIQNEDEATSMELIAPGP

IC50 [nM]	SMILES
321	C[C@@H]1C(=O)NCCN1C(=O)NC(c1ccc(F)c(Cl)c1F)C1CCC(F)(F)C1 (single isomer, unassigned) [Example 42A, (2R)-N-((R or S)-(3-choro-2,4-difluoro-phenyl)((R or S)-3,3-difluorocyclopentyl)-methyl)-2-methyl-3-oxopiperazine-1-carboxamide]
2830	C[C@@H]1C(=O)NCCN1C(=O)NC(c1ccc(F)c(Cl)c1F)C1CCC(F)(F)C1 (single isomer, unassigned) [Example 42B, (2R)-N-((R or S)-(3-chloro-2,4-difluoro-phenyl)((S or R)-3,3-difluorocyclopentyl)-methyl)-2-methyl-3-oxopiperazine-1-carboxamide]
24.1	C[C@@H]1C(=O)NCCN1C(=O)NC(c1ccc(F)c(Cl)c1F)C1CCC(F)(F)C1 (single isomer, unassigned) [Example 42C, (2R)-N-((S or R)-(3-chloro-2,4-difluoro-phenyl)((R or S)-(3,3-difluorocyclopentyl)-methyl)-2-methyl-3-oxopiperazine-1-carboxamide]
20.1	C[C@@H]1C(=O)NCCN1C(=O)NC(c1ccc(F)c(Cl)c1F)C1CCC(F)(F)C1 (single isomer, unassigned) [Example 42D, (2R)-N-((S or R)-(3-chloro-2,4-difluoro-phenyl)((S or R)-3,3-difluorocyclopentyl)-methyl)-2-methyl-3-oxopiperazine-1-carboxamide]
39.6	C[C@@H]1C(=O)NCCN1C(=O)NC(c1ccc(F)c(Cl)c1)C1CC(C(F)(F)F)C1 (single isomer, unassigned) [Example 43A, (2R)-N-((R or S)-(3-chloro-4-fluorophenyl)-(trans-3-(trifluoro-methyl)-cyclobutyl)-methyl)-2-methyl-3-oxopiperazine-1-carboxamide]
26.4	C[C@@H]1C(=O)NCCN1C(=O)NC(c1ccc(F)c(Cl)c1)C1CC(C(F)(F)F)C1 (single isomer, unassigned) [Example 43B, (2R)-N-((R or S)-(3-chloro-4-fluorophenyl)-(cis-3-(trifluoromethyl)-cyclobutyl)methyl)-2-methyl-3-oxopiperazine-1-carboxamide]
3.2	C[C@@H]1C(=O)NCCN1C(=O)NC(c1ccc(F)c(Cl)c1)C1CC(C(F)(F)F)C1 (single isomer, unassigned) [Example 43C, (2R)-N-((S or R)-(3-chloro-4-fluorophenyl)-(trans-3-(trifluoro-methyl)-cyclobutyl)-methyl)-2-methyl-3-oxopiperazine-1-carboxamide]
21.9	C[C@@H]1C(=O)NCCN1C(=O)NC(c1ccc(F)c(Cl)c1)C1CC(C(F)(F)F)C1 (single isomer, unassigned) [Example 43D, (2R)-N-((S or R)-(3-chloro-4-fluorophenyl)-(cis-3-(trifluoromethyl)-cyclobutyl)methyl)-2-methyl-3-oxopiperazine-1-carboxamide]
90.5	C[C@@H]1C(=O)NCCN1C(=O)NC(c1ccc(F)c(Cl)c1)C1CC(OCC(F)(F)F)C1 (single isomer, unassigned) [Example 44A, (2R)—N—((R or S)-(3-chloro-4-fluorophenyl)(cis-3-(2,2,2-trifluoroethoxy)cyclobutyl)methyl)-2-methyl-3-oxopiperazine-1-carboxamide]
335	C[C@@H]1C(=O)NCCN1C(=O)NC(c1ccc(F)c(Cl)c1)C1CC(OCC(F)(F)F)C1 (single isomer, unassigned) [Example 44B, (2R)—N—((S or R)-(3-chloro-4-fluorophenyl)(cis-3-(2,2,2-trifluoroethoxy)cyclobutyl)methyl)-2-methyl-3-oxopiperazine-1-carboxamide]

More lines, now with the values behind:

SMILES	IC50 [nM]
C[C@@H]1C(=O)NCCN1C(=O)NC(c1ccc(Cl)c(C(F)F)c1)C1CCC(C(F)(F)F)CC1 (single isomer, unassigned) [Example 37D, (2R)-N-((S or R)-(4-chloro-3-(difluoro-methyl)phenyl)(trans-4-(trifluoromethyl)cyclohexyl)methyl)-2-methyl-3-oxopiperazine-1-carboxamide]	1.99
C[C@@H]1C(=O)NCCN1C(=O)NC(c1ccc(F)c(Cl)c1)C1CC(OC(F)F)C1 (single isomer, unassigned) [Example 38A, (2R)-N-((R or S)-(3-chloro-4-fluoro-phenyl)-(trans-3-(difluoro-methoxy)cyclobutyl)-methyl)-2-methyl-3-oxopiperazine-1-carboxamide]	146
C[C@@H]1C(=O)NCCN1C(=O)NC(c1ccc(F)c(Cl)c1)C1CC(OC(F)F)C1 (single isomer, unassigned) [Example 38B, (2R)-N-((R or S)-(3-chloro-4-fluorophenyl) (cis-3-(difluoromethoxy)cyclobutyl)methyl)-2-methyl-3-oxopiperazine-1-carboxamide]	158
C[C@@H]1C(=O)NCCN1C(=O)NC(c1ccc(F)c(Cl)c1)C1CC(OC(F)F)C1 (single isomer, unassigned) [Example 38C, (2R)-N-((S or R)-(3-chloro-4-fluorophenyl) (cis-3-(difluoromethoxy)cyclobutyl)methyl)-2-methyl-3-oxopiperazine-1-carboxamide]	87.1
C[C@@H]1C(=O)NCCN1C(=O)NC(c1ccc(F)c(Cl)c1)C1CC(OC(F)F)C1 (single isomer, unassigned) [Example 38D, (2R)-N-((S or R)-(3-chloro-4-fluorophenyl)-(trans-3-(difluoro-methoxy)cyclobutyl)-methyl)-2-methyl-3-oxopiperazine-1-carboxamide]	17.9
C[C@@H]1C(=O)NCCN1C(=O)NC(c1ccc(F)c(Cl)c1F)C1CC(OC(F)F)C1 (single isomer, unassigned) [Example 39A, (2R)-N-((R or S)-(3-chloro-2,4-difluoro-phenyl)(trans-3-(difluoromethoxy)-cyclobutyl)methyl)-2-methyl-3-oxopiperazine-1-carboxamide]	816
C[C@@H]1C(=O)NCCN1C(=O)NC(c1ccc(F)c(Cl)c1F)C1CC(OC(F)F)C1 (single isomer, unassigned) [Example 39B, (2R)-N-((R or S)-(3-chloro-2,4-difluoro-phenyl)(cis-3-(difluoro-methoxy)cyclobutyl)-methyl)-2-methyl-3-oxopiperazine-1-carboxamide]	916
C[C@@H]1C(=O)NCCN1C(=O)NC(c1ccc(F)c(Cl)c1F)C1CC(OC(F)F)C1 (single isomer, unassigned) [Example 39C, (2R)-N-((S or R)-(3-chloro-2,4-difluoro-phenyl)(cis-3-(difluoro-methoxy)cyclobutyl)-methyl)-2-methyl-3-oxopiperazine-1-carboxamide]	48.5
C[C@@H]1C(=O)NCCN1C(=O)NC(c1ccc(F)c(Cl)c1F)C1CC(OC(F)F)C1 (single isomer, unassigned) [Example 39D, (2R)-N-((S or R)-(3-chloro-2,4-difluoro-phenyl)(trans-3-(difluoro-methoxy)cyclobutyL)-methyl)-2-methyl-3-oxopiperazine-1-carboxamide]	8.1
COC1CC(C(NC(=O)N2CCNC(=O)[C@H]2C)c2ccc(F)c(Cl)c2F)C1 (single isomer, unassigned) [Example 40A, (2R)-N-((R or S)-(3-chloro-2,4-difluoro-phenyl)(trans-3-methoxy-cyclobutyl)methyl)-2-methyl-3-oxopiperazine-1-carboxamide]	11700
COC1CC(C(NC(=O)N2CCNC(=O)[C@H]2C)c2ccc(F)c(Cl)c2F)C1 (single isomer, unassigned) [Example 40B, (2R)-N-((R or S)-(3-chloro-2,4-difluoro-phenyl)(cis-3-methoxy-cyclobutyl)methyl)-2-methyl-3-oxopiperazine-1-carboxamide]	14500
COC1CC(C(NC(=O)N2CCNC(=O)[C@H]2C)c2ccc(F)c(Cl)c2F)C1 (single isomer, unassigned) [Example 40C, (2R)-N-((S or R)-(3-chloro-2,4-difluoro-phenyl)(cis-3-methoxycyclobutyl)-methyl)-2-methyl-3-oxopiperazine-1-carboxamide]	362
COC1CC(C(NC(=O)N2CCNC(=O)[C@H]2C)c2ccc(F)c(Cl)c2F)C1 (single isomer, unassigned) [Example 40D, (2R)-N-((S or R)-(3-chloro-2,4-difluoro-phenyl)(trans-3-methoxycyclobutyl)-methyl)-2-methyl-3-oxopiperazine-1-carboxamide]	108
C[C@@H]1C(=O)NCCN1C(=O)NC(c1ccc(F)c(Cl)c1F)C1CC12CC2 (single isomer, unassigned) [Example 41A, (2R)-N-((R or S)-(3-chloro-2,4-difluoro-phenyl)((R or S)-spiro[2.2]pentan-1-yl)methyl)-2-methyl-3-oxopiperazine-1-carboxamide]	31.6
C[C@@H]1C(=O)NCCN1C(=O)NC(c1ccc(F)c(Cl)c1F)C1CC12CC2 (single isomer, unassigned) [Example 41B, (2R)-N-((S or R)-(3-chloro-2,4-difluoro-phenyl)((R or S)-spiro[2.2]pentan-1-yl)methyl)-2-methyl-3-oxopiperazine-1-carboxamide]	1180
C[C@@H]1C(=O)NCCN1C(=O)NC(c1ccc(F)c(Cl)c1F)C1CC12CC2 (single isomer, unassigned) [Example 41C, (2R)-N-((R or S)-(3-chloro-2,4-difluoro-phenyl)(S or R)-spiro[2.2]pentan-1-yl)methyl)-2-methyl-3-oxopiperazine-1-carboxamide]	143
C[C@@H]1C(=O)NCCN1C(=O)NC(c1ccc(F)c(Cl)c1F)C1CC12CC2 (single isomer, unassigned) [Example 41D, (2R)-N-((S or R)-(3-chloro-2,4-difluoro-phenyl)((S or R)-spiro[2.2]pentan-1-yl)methyl)-2-methyl-3-oxopiperazine-1-carboxamide]	1060
